Data set [1] can be described thus: Pharmacokinetics in SD rats, single intravenous injection and oral administration. It counts as in vivo, SD rat. On the procedure: In this assay, the pharmacokinetic characteristics of the compounds of the present application were assayed after administration of some of the compounds of the present application to SD rats by single oral administration and intravenous injection. 1. […] The mixture was stirred, vortexed and/or sonicated. Once a solution was obtained, the vehicle was gradually added to a final volume to reach the target concentration. The solution was vortexed, and sonicated to obtain a homogeneous solution. The solution was filtered through a 0.22 μm PVDF membrane. 2. […] The mixture was stirred, vortexed and/or sonicated. Once a solution was obtained, the vehicle was gradually added to a final volume to reach the target concentration. The solution was vortexed, and sonicated to obtain a homogeneous solution. […] Meanwhile, the IV group was not fasted and the PO group was fasted overnight (>12 hrs) and given food 2 hrs after drug administration. All animals had free access to water. The dosing regimen and pharmacokinetic sampling regimen are given in Table 6 and Table 7 below, respectively. […] Rats were administered according to the above regimen, and blood and brain tissue samples were collected and processed at predetermined time points (collection and processing were performed according to conventional methods in the art). […] The supernatant was diluted 2-fold with ultra-pure water, and the samples were analyzed by LC/MS. Pharmacokinetic parameters was calculated using WinNonlin software. The following pharmacokinetic parameters was calculated from the plasma drug concentration-time data: CL (clearance); Vd (apparent volume of distribution); T1/2 (elimination half-life time); Cmax (peak concentration); Tmax (time to peak); AUC (area under plasma drug concentration-time curve); MRT (mean retention time); F % (bioavailability).

The target in the next data set is EGFR^WT kinase (Homo sapiens, UniProt P00533). Put plainly: EGFR^WT kinase assay (ULight/PT66 TR-FRET). It counts as biochemical. The method, then:
(§1) Preparation of compound solution: The assay compound was dissolved in DMSO to form a 10 mM stock solution. Prior to use, the compound was diluted to 0.25 mM in DMSO (100 times the final concentration of the diluent) and then subjected to a 3-fold concentration gradient dilution to obtain a total of 11 concentrations. The solution was diluted with buffer to a diluent with 4× the final concentration when the compound was added.
(§2) EGFR^WT kinase assay: buffer was prepared, and 3.48 nM 4×EGFR kinase solution, 600 μM 4×ATP solution, and 400 nM 4×ULight™-labeled JAK-1 (Try1023) Peptide substrate solution were prepared using the buffer. After the preparation was completed, the enzyme was mixed with different concentrations of compounds pre-prepared by dilution, and the mixture was left to stand at room temperature for 5 min. Each concentration was performed in duplicate. The corresponding substrate and ATP were added and the mixture was reacted at room temperature for 120 minutes (with negative and positive controls). After completion of the reaction, PT66 detection antibody was added. The mixture was incubated at room temperature for 60 minutes, and then detected by Envision.
(§3) Compound concentrations and corresponding inhibition rates were input into GraphPad Prism for processing to calculate IC50 values.
A general note: In TR-FRET formats the signal depends on donor and acceptor labels being close together.

In data set [2] the target is Ba/F3 HER2 A775_G776insYVMA cells (Homo sapiens, UniProt P04626, DUP772-775, cells depend on it). The data set is described as follows: Inhibition of cell proliferation, CTG method, Ba/F3 HER2 A775_G776insYVMA. It counts as cell-based. As to conditions: 72 hours, read-out: Ba/F3 HER2 A775-G776insYVMA IC50. The text has this: The present application examined the in vitro anti-proliferative activity of the compounds of the present disclosure against in vitro cultured BT474, NCI-N87, Ba/F3-EGFR-VIII and Ba/F3 HER2 A775_G776insYVMA and Ba/F3 EGFR D770_N771insSVD cell lines by CTG method.
Ba/F3 HER2 A775_G776insYVMA cells, sequence (P04626 with tags, fused parts or gaps DUP772-775): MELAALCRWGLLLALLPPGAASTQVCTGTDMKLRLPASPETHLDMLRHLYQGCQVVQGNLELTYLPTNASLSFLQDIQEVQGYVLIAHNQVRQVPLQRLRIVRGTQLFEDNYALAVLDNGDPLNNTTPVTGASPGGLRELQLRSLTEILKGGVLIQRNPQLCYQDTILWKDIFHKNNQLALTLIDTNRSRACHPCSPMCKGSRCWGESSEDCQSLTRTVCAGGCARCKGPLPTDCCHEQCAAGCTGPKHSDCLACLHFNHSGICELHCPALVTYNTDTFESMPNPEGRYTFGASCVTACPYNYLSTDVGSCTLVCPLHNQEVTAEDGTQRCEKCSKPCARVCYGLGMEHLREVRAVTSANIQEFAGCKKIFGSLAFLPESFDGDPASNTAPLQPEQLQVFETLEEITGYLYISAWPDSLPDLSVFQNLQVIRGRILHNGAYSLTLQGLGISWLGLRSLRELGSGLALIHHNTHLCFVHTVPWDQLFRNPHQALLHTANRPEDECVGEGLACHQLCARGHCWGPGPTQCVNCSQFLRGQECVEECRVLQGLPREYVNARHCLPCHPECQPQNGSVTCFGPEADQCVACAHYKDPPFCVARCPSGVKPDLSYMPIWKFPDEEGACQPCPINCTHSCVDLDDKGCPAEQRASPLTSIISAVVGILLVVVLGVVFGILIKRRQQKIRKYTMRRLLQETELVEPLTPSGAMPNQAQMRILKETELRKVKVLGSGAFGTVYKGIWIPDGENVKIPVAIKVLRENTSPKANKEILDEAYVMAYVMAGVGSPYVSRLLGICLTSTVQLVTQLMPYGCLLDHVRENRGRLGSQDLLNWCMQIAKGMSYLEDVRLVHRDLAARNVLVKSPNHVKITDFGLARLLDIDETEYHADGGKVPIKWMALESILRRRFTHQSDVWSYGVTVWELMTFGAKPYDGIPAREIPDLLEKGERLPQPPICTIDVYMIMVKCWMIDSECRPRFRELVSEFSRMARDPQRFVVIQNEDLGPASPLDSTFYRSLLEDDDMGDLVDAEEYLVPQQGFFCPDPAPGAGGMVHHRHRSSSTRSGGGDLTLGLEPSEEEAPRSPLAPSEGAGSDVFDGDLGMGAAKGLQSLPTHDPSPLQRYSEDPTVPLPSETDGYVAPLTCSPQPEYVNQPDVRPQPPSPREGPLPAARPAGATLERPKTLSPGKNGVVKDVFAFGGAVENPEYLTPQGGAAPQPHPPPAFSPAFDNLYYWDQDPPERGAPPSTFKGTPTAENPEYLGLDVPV
Cell lines: BT474 (from the cell bank of Chinese Academy of Sciences), NCI-N87 (from ATCC), Ba/F3-EGFR-VIII, Ba/F3 HER2 A775_G776insYVMA and Ba/F3 EGFR D770_N771insSVD (all from KYinno Biotechnology (Beijing) Co., Ltd.); all of the above cells were cultured with RPMI1640 medium containing 10% fetal bovine serum, 100 U/mL penicillin, and 100 μg/mL streptomycin in the culture process.
1. The assay compound was dissolved with DMSO to form a stock solution and a gradient dilution was performed, followed by dilution with the corresponding medium to obtain a solution with 5-fold working concentration.
2. Cells in logarithmic growth phase were adjusted to specific cell densities by dilution with culture medium, and 80 μL of cell suspension was added to a 96-well plate, such that plating densities of cells of BT474, NCI-N87, Ba/F3-EGFR-VIII, Ba/F3 HER2 A775_G776insYVMA and Ba/F3 EGFR D770_N771insSVD were all 3000 cells/well. The cells of Ba/F3-EGFR-VIII, Ba/F3 HER2 A775_G776insYVMA and Ba/F3 EGFR D770_N771insSVD were used directly in the next step (treatment with compound), whereas the BT474 and NCI-N87 needed to be cultured overnight in a 37° C., 5% carbon dioxide gas incubator to adhere to the wall, and then treated with compounds.
3. […] The highest concentration of the assayed compound was 10 μM, 4-fold serial dilution, a total of 9 concentrations, and duplicate wells. A control group without compound was also set up.
4. The cells were cultured for another 72 hours, and then cell viability was detected by CTG assay kit. Signal values were read with a multifunctional plate reader (Perkin Elmer). GraphPad Prism software was used to create a dose-response curve and IC50 was calculated.

Another data set has as its target T1, HER2 kinase (Homo sapiens, UniProt P04626).
T1 construct: purchased Carna Biosciences 08-016
The data set is described as follows: HER2 kinase assay (ULight/PT66 TR-FRET). The data set is classed as biochemical. The method, then: as §1
as §2, with “HER2” for “EGFR^WT”, “40” for “3.48”, “4×Her2” for “4×EGFR”, “40” for “600”, “Ploy GT” for “JAK-1 (Try1023)”
as §3

The mark [3] stands for this setting: SD, rat, whole blood, IV 3 mg/kg.

Where only a bound is given, the exact number is not on record here.

EGFR^WT kinase, sequence (P00533 25-1210): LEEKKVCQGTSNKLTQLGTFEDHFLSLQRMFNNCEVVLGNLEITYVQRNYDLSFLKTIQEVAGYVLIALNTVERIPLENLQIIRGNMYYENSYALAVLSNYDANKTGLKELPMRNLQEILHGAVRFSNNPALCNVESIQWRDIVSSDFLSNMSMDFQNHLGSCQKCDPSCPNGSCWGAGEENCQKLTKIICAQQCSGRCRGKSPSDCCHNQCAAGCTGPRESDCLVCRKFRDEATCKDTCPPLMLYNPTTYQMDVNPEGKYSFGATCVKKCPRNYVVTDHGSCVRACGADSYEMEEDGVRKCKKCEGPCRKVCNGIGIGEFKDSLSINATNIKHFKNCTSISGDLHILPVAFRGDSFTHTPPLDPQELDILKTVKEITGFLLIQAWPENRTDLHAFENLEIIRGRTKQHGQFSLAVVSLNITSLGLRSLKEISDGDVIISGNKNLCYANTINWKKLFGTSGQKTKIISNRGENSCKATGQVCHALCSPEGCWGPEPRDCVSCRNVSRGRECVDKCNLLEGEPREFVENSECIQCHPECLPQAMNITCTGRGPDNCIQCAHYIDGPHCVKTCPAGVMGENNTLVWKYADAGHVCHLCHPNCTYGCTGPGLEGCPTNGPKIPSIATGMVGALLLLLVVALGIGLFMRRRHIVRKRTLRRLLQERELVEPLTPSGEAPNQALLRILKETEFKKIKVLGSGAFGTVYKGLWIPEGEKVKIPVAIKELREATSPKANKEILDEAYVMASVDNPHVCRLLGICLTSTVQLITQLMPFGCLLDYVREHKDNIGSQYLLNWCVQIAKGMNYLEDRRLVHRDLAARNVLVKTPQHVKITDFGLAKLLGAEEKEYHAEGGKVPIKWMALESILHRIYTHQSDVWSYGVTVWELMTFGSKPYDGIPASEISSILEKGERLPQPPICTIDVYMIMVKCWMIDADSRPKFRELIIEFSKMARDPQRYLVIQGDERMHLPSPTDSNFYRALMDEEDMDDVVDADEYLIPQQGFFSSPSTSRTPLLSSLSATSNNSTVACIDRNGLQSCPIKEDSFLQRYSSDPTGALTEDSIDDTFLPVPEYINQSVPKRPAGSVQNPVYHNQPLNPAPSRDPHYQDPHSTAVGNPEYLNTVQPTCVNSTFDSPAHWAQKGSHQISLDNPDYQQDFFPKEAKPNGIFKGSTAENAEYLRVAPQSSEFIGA
T1 sequence (P04626 23-1255): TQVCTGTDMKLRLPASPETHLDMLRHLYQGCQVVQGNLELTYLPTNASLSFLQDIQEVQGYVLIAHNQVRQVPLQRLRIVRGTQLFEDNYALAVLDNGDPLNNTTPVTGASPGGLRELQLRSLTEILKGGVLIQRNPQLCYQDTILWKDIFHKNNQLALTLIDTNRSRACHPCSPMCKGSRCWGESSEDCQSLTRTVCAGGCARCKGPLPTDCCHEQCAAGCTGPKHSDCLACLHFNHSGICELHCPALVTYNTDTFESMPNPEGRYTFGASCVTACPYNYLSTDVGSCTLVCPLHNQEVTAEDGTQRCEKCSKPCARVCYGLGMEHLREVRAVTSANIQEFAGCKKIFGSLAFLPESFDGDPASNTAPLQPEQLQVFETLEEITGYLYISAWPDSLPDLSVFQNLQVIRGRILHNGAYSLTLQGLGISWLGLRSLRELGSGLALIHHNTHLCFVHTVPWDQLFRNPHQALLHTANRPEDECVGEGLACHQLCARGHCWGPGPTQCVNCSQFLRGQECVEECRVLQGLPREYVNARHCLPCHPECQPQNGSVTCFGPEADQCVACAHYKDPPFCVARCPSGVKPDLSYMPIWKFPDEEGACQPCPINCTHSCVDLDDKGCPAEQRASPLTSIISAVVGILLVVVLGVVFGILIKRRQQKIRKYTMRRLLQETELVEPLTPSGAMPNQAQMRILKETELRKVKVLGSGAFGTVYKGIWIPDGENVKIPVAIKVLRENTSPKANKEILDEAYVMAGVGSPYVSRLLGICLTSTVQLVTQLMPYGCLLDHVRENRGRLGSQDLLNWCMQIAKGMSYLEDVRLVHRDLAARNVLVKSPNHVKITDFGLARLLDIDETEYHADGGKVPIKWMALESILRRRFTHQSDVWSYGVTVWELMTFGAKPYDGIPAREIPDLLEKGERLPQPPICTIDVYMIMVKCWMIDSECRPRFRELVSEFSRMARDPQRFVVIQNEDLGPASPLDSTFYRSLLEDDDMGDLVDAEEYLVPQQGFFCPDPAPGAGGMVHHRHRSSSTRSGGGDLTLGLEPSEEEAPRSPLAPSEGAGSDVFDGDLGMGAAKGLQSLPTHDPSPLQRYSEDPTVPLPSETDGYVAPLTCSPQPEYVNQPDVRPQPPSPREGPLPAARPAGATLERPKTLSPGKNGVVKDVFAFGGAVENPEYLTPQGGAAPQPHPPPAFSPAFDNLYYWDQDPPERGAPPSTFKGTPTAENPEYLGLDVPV

As usually defined, the AUC(0-inf) is the area under the concentration-time curve extrapolated to infinity. High values mean high exposure, low ones low exposure. In general, AUC(0-t) refers to the area under the concentration-time curve up to a stated or last time point. Low readings indicate less exposure, high ones more exposure. Broadly, the half-life is how long it takes for the measured level to halve. Regarding `CN1CCC[C@@H]1/C=C/C(=O)Nc1ccc2ncnc(Nc3ccc(OCc4ccccn4)c(Cl)c3)c2c1` [Control compound 1, reference compound], the Cl_obs in data set [1] (IV 3 mg/kg) was found to be 72.7 ± 7.1 mL/min/kg. In data set [1] (setting [3]), this molecule gave an area under the curve AUC(0-inf) of 693 ± 72 ng·h/mL, an AUC(0-t) of 678 ± 74 ng·h/mL, a Vd of 31 ± 4.6 L/kg and a half-life of 4.91 ± 0.28 h. Besides, the “oral absorption (in words)” value in data set [1] (administrated orally) is “hardly absorbed”.

The IC50 is the midpoint of a concentration-inhibition curve. A low value points to higher potency. Turning to `COc1c(NC(=O)/C=C/CN(C)C2CCC2)ccc2ncnc(Nc3ccc(OCc4ccccn4)c(Cl)c3)c12` [Example 3, (E)-N-(4-((3-chloro-4-(pyridin-2-ylmethoxy)phenyl)amino)-5-methoxyquinazolin-6-yl)-4-(cyclobutyl(methyl)amino)but-2-enamide], the IC50 at EGFR^WT kinase and at HER2 kinase was less than 10 nM in each case. The GI50 in data set [2] was in the range of 1 to 5 nM.

Regarding `CN1CCC[C@@H]1/C=C/C(=O)Nc1ccc2ncnc(Nc3ccc(OCc4ccccn4)c(Cl)c3)c2c1OCCF` [Example 7, (R,E)-N-(4-((3-chloro-4-(pyridin-2-ylmethoxy)phenyl)amino)-5-(2-fluoroethoxy)quinazolin-6-yl)-3-(1-methylpyrrolidin-2-yl)acrylamide], the IC50 against EGFR^WT kinase and on HER2 kinase was less than 10 nM each time. Further, in data set [2], the GI50 lay in the range of 1 to 5 nM.

For the molecule `CN1CCC[C@@H]1/C=C/C(=O)Nc1ccc2ncnc(Nc3ccc(OCc4ccccn4)c(Cl)c3)c2c1OCCC(F)(F)F` [Example 12, (R,E)-N-(4-((3-chloro-4-(pyridin-2-ylmethoxy)phenyl)amino)-5-(3,3,3-trifluoropropoxy)quinazolin-6-yl)-3-(1-methylpyrrolidin-2-yl)acrylamide], the IC50 against EGFR^WT kinase and against HER2 kinase was less than 10 nM in each case. In addition, the GI50 in data set [2] is 1 to 5 nM.

In the case of `CC(C)COc1c(NC(=O)/C=C/[C@H]2CCCN2C)ccc2ncnc(Nc3ccc(OCc4ccccn4)c(Cl)c3)c12` [Example 14, (R,E)-N-(4-((3-chloro-4-(pyridin-2-ylmethoxy)phenyl)amino)-5-isobutoxyquinazolin-6-yl)-3-(1-methylpyrrolidin-2-yl)acrylamide], the IC50 on EGFR^WT kinase and at HER2 kinase was less than 10 nM throughout. Also, the GI50 in data set [2] lay in the range of 1 to 5 nM.

Consider `CN1CCC[C@@H]1/C=C/C(=O)Nc1ccc2ncnc(Nc3ccc(OCc4ccccn4)c(Cl)c3)c2c1OCCC(C)(C)O` [Example 16, (R,E)-N-(4-((3-chloro-4-(pyridin-2-ylmethoxy)phenyl)amino)-5-(3-hydroxy-3-methylbutoxy)quinazolin-6-yl)-3-(1-methylpyrrolidin-2-yl)acrylamide], for which the IC50 against EGFR^WT kinase and against HER2 kinase was less than 10 nM each time. For the same molecule, the GI50 in data set [2] fell in the range of 1 to 5 nM.

On to `COc1c(NC(=O)/C=C/[C@H]2CCCN2C(C)C)ccc2ncnc(Nc3ccc(OCc4cccc(F)c4)c(Cl)c3)c12` [Example 18, (R,E)-N-(4-((3-chloro-4-(3-fluorobenzyloxy)phenyl)amino)-5-methoxyquinazolin-6-yl)-3-(1-isopropylpyrrolidine-2-yl)acrylamide], for which the IC50 on EGFR^WT kinase and on HER2 kinase was less than 10 nM throughout. Moreover, the GI50 in data set [2] lay within 1 to 5 nM.

For the molecule `CCOc1c(NC(=O)/C=C/[C@H]2CCCN2CC)ccc2ncnc(Nc3ccc(OCc4cccc(F)c4)c(Cl)c3)c12` [Example 19, (R,E)-N-(4-((3-chloro-4-(3-fluorobenzyloxy)phenyl)amino)-5-ethoxyquinazolin-6-yl)-3-(1-ethylpyrrolidin-2-yl)acrylamide], the IC50 at EGFR^WT kinase and against HER2 kinase was less than 10 nM in each case. Moreover, the GI50 in data set [2] lay within 1 to 5 nM.

As to `CCOc1c(NC(=O)/C=C/[C@H]2CCCN2CC)ccc2ncnc(Nc3ccc(OCc4ccccn4)c(Cl)c3)c12` [Example 20, (R,E)-N-(4-((3-chloro-4-(pyridin-2-ylmethoxy)phenyl)amino)-5-ethoxyquinazolin-6-yl)-3-(1-ethylpyrrolidin-2-yl)acrylamide], the IC50 at EGFR^WT kinase and on HER2 kinase was less than 10 nM each time. The GI50 in data set [2] lay within 1 to 5 nM.

In the case of `CCOc1c(NC(=O)/C=C/[C@H]2CCCN2C)ccc2ncnc(Nc3ccc(OCc4ccccn4)c(F)c3)c12` [Example 21, (R,E)-N-(5-ethoxy-4-((3-fluoro-4-(pyridin-2-ylmethoxy)phenyl)amino)quinazolin-6-yl)-3-(1-methylpyrrolidine-2-yl)acrylamide], the IC50 against EGFR^WT kinase and against HER2 kinase was less than 10 nM each time. Moreover, in data set [2], the GI50 lay in the range of 1 to 5 nM.

Consider `CN1CCC[C@@H]1/C=C/C(=O)Nc1ccc2ncnc(Nc3ccc(OCc4cccc(F)c4)c(Cl)c3)c2c1OC1CC1` [Example 41, (R,E)-N-(4-((3-chloro-4-((3-fluorobenzyl)oxy)phenyl)amino)-5-cyclopropoxyquinazolin-6-yl)-3-(1-methylpyrrolidone-2-yl)acrylamide], for which the GI50 in data set [2] lay in the range of 1 to 5 nM. In addition, the IC50 against HER2 kinase is less than 10 nM.

`COc1c(NC(=O)/C=C/[C@H]2CCCN2C2CCC2)ccc2ncnc(Nc3ccc(OCc4ccccn4)c(Cl)c3)c12` [Example 42, (R,E)-N-(4-((3-chloro-4-(pyridin-2-ylmethoxy)phenyl)amino)-5-methoxyquinazolin-6-yl)-3-(1-cyclobutylpyrrolidin-2-yl)acrylamide]: the IC50 at EGFR^WT kinase is 100 to 1000 nM; against HER2 kinase it was less than 10 nM.

`COc1c(NC(=O)/C=C/CN2CCCC2)ccc2ncnc(Nc3ccc(OCc4ccccn4)c(Cl)c3)c12` [Example 43, (E)-N-(4-((3-chloro-4-(pyridin-2-ylmethoxy)phenyl)amino)-5-methoxyquinazolin-6-yl)-4-(pyrrolidine-1-yl)but-2-enamide]: the IC50 against HER2 kinase was less than 10 nM.

For `COc1c(NC(=O)/C=C/CN2CCCCC2)ccc2ncnc(Nc3ccc(OCc4ccccn4)c(Cl)c3)c12` [Example 44, (E)-N-(4-((3-chloro-4-(pyridin-2-ylmethoxy)phenyl)amino)-5-methoxyquinazolin-6-yl)-4-(piperidin-1-yl)but-2-enamide], the half-inhibitory concentration (IC50) against HER2 kinase was less than 10 nM.

(Values after patent publication US20240246934A1, “QUINAZOLINE-BASED COMPOUND, COMPOSITION, AND APPLICATION OF QUINAZOLINE-BASED COMPOUND” (BEIJING SCITECH-MQ PHARMACEUTICALS LIMITED, priority 2021, published 2024).)
